# Experimental data reported in ChEMBL document CHEMBL5038592, “Discovery of MK-8153, a Potent and Selective ROMK Inhibitor and Novel Diuretic/Natriuretic” (J Med Chem, 2021).
# Tests used:
# [1] = biological target: T1, ATP-sensitive inward rectifier potassium channel 1 (Homo sapiens, UniProt P48048); assay: Inhibition of human ROMK expressed in CHO cells by whole cell voltage clamp electrophysiology assay; format: cell-based
# T1 sequence (P48048 whole entry): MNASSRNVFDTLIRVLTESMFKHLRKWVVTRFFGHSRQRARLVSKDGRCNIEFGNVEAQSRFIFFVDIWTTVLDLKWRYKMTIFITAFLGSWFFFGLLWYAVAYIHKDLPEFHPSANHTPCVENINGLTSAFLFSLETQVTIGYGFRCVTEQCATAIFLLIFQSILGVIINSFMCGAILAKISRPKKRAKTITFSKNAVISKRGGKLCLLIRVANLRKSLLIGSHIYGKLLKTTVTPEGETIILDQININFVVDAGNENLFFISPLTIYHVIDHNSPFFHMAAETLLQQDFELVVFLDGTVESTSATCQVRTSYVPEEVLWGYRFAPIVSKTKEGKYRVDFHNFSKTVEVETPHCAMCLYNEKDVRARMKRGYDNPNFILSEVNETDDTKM
# [2] = Apparent permeability in pig LLC-PK1 cells
# [3] = biological target: Voltage-gated inwardly rectifying potassium channel KCNH2 (Homo sapiens, UniProt Q12809); assay: Inhibition of human ERG expressed in HEK-293 cells by voltage clamp electrophysiology assay
# Sequence of Voltage-gated inwardly rectifying potassium channel KCNH2 (Q12809 whole entry): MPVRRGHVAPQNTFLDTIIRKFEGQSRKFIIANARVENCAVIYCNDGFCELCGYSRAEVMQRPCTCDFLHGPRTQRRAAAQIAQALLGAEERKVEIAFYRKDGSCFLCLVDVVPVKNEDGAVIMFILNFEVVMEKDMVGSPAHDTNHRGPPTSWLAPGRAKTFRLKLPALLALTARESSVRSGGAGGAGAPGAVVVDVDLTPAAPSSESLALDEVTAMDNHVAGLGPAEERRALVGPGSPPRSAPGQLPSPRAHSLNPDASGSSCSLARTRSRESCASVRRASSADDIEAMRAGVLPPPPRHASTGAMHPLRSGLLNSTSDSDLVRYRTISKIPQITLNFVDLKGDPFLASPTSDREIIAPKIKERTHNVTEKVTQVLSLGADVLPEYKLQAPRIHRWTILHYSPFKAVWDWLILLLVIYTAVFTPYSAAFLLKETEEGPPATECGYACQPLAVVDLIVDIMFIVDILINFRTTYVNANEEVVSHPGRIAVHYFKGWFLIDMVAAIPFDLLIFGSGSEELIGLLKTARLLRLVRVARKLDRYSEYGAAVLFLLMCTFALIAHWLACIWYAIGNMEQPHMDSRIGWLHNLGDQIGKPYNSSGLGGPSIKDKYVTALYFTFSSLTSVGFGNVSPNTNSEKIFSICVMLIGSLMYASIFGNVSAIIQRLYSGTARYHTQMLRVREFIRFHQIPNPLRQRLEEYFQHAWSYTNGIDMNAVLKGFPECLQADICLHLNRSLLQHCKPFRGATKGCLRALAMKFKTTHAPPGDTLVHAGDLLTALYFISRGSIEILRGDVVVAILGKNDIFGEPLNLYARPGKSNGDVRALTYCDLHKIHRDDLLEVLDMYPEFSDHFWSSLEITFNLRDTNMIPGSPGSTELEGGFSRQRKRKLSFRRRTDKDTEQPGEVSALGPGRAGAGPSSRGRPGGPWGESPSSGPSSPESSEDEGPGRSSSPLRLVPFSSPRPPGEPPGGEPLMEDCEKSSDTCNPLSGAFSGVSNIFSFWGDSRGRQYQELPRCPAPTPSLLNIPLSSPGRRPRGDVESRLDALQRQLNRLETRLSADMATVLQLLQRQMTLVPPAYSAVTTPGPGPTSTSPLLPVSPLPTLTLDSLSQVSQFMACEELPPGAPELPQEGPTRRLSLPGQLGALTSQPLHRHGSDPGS
# Homo sapiens = organism: Homo sapiens; assay: Selectivity index, ratio of IC50 for human ERG to IC50 for human ROMK
Compound,IC50 [1] [nM],Papp [2] [×10⁻⁶ cm/s],Ratio (Homo sapiens),IC50 [3] [nM]
CC1=C(N2CCC3(CCN(C[C@H](O)c4ccc5c(c4C)COC5=O)CC3)C2=O)C(C)OC1=O (some centres not stated),98,20,,20000
Cc1c([C@@H](O)CN2CCC3(CC2)CC(=O)N(C2=CC(=O)OC2)C3)ccc2c1COC2=O,45,7.9,2000,90000
Cc1c([C@@H](O)CN2CCC3(CC2)CCN(C2=C(Cl)C(=O)OC2)C3=O)ccc2c1COC2=O,6,33,,
CC1=C(N2C(=O)C3(CCN(C[C@H](O)c4ccc5c(c4C)COC5=O)CC3)CC2C)COC1=O (some centres not stated),18,18,,18000
CCC1=C(N2CCC3(CCN(C[C@H](O)c4ccc5c(c4C)COC5=O)CC3)C2=O)COC1=O,18,23,,
Cc1c([C@@H](O)CN2CCC3(CC2)CCN(C2=CC(=O)OC2)C3)ccc2c1COC2=O,26,27,3400,90000
Cc1c([C@@H](O)CN2CCC3(CC2)CCN(C2=CC(=O)OC2C)C3=O)ccc2c1COC2=O (some centres not stated),24,19,,19000
Cc1c([C@@H](O)CN2CCN(C[C@H](O)c3ccc4c(c3C)COC4=O)CC2)ccc2c1COC2=O [MK-7145],,20,,22000

# More lines, main results first:
IC50 [1] [nM],Papp [2] [×10⁻⁶ cm/s],Ratio (Homo sapiens),Compound,IC50 [3] [nM]
15,22,,CC1=C(N2CCC3(CCN(C[C@H](O)c4ccc5c(c4C)COC5=O)CC3)C2=O)CCC1=O,
,11,,Cc1c([C@@H](O)CN2CCC3(CC2)CCN(C2=CC(=O)OC2)C3=O)ccc2c1COC2=O,
11,,,Cc1c([C@@H](O)CN2CCC3(CC2)CCN(C2=CC(=O)CC2)C3=O)ccc2c1COC2=O,
